The target of one assay is T1, human A2A receptors (Homo sapiens, UniProt P29274).
T1 construct: expressed in transfected cells; host or cells: HEK293
Nature of the assay: Functional human A2A receptor activity, recombinant HEK293 cells, cAMP (HTRF). It counts as cell-based. The note with it: read-out: A2A (Category). The procedure, abridged:
(§1)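 Receptor function was assessed by measuring cAMP, the second messenger for adenosine receptors. Cells were incubated for 15 min, after which HTRF reagents were added and cellular cAMP levels were read.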

In another assay the target is T2, human A2B receptors (Homo sapiens, UniProt P29275).
T2 construct: expressed in transfected cells; host or cells: HEK293
T2 sequence (P29275 1-332): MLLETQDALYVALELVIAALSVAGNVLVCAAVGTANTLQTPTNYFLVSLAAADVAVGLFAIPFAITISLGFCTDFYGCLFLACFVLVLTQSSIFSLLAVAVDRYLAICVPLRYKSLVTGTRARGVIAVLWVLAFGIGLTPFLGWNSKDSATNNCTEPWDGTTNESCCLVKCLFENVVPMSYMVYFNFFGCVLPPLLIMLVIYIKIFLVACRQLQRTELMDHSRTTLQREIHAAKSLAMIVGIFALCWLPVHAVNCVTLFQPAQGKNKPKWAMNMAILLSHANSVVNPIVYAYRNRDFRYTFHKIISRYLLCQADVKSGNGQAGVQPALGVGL
The assay is described as follows: Functional human A2B receptor activity, recombinant HEK293 cells, cAMP (HTRF). It counts as cell-based. The note with it: read-out: A2B (Category). In a few lines: as §1

T1 sequence (P29274 whole entry): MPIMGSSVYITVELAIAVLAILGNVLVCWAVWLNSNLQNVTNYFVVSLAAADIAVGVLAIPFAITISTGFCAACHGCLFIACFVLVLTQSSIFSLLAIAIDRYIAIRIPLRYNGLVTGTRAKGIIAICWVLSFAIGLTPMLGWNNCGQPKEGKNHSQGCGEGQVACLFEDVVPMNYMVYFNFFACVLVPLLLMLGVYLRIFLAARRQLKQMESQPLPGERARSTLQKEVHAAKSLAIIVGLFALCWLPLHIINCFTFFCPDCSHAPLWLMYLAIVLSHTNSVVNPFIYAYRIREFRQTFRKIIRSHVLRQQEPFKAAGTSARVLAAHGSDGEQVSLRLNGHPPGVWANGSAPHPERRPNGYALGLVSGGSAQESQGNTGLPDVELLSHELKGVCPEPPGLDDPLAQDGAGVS

In the case of `O=C(c1cc2c(cn1)c(-c1nnc3ccccn13)nn2CC(F)(F)F)N1CCCCCC1` [Compound 71, Azepan-1-yl-[3-[1,2,4]triazolo[4,3-a]pyridin-3-yl-1-(2,2,2-trifluoro-ethyl)-1H-pyrazolo[4,3-c]pyridin-6-yl]-methanone], the IC50 at human A2A receptors is less than 100 nM; on human A2B receptors, less than 1000 nM.

As to `C[C@]1(O)[C@@H]2CC[C@H]1CN(C(=O)c1cc3c(cn1)c(-c1coc4ccccc14)nn3CC(F)(F)F)C2` [Compound 212, [3-Benzofuran-3-yl-1-(2,2,2-trifluoro-ethyl)-1H-pyrazolo[4,3-c]pyridin-6-yl]-(8-endo-hydroxy-8-exo-methyl-3-aza-bicyclo[3.2.1]oct-3-yl)-methanone], the IC50 is less than 100 nM on human A2A receptors and less than 1000 nM at human A2B receptors.

With `CS(=O)(=O)Cn1nc(-c2cnc3c(F)cc(F)cn23)c2cnc(C(=O)N3CC4CCC(C3)O4)cc21` [Compound 27, [3-(6,8-Difluoro-imidazo[1,2-a]pyridin-3-yl)-1-methanesulfonylmethyl-1H-pyrazolo[4,3 c]pyridin-6-yl]-(8-oxa-3-aza-bicyclo[3.2.1]oct-3-yl)-methanone], the values for the IC50 on human A2A receptors and on human A2B receptors were less than 100 nM and less than 1000 nM, respectively.

For `N#CCn1nc(-c2cnc3ccc(F)cn23)c2cnc(C(=O)N3CCCCCC3)cc21` [Compound 7, [6-(Azepane-1-carbonyl)-3-(6-fluoro-imidazo[1,2-a]pyridin-3-yl)-pyrazolo[4,3-c]pyridin-1-yl]-acetonitrile], the IC50 was less than 100 nM at human A2A receptors and less than 1000 nM at human A2B receptors.

With `CCCn1nc(-c2cnc3ccc(F)cn23)c2cnc(C(=O)N3CCCCCC3)cc21` [Compound 5, Azepan-1-yl-[3-(6-fluoro-imidazo[1,2-a]pyridin-3-yl)-1-propyl-1H-pyrazolo[4,3-c]pyridin-6-yl]-methanone], the IC50 on human A2A receptors was less than 100 nM; at human A2B receptors, less than 1000 nM.

`O=C(c1cc2c(cn1)c(-n1cnc3ccccc31)nn2CC(F)(F)F)N1CCCOCC1` [Compound 251, [3-(benzimidazol-1-yl)-1-(2,2,2-trifluoroethyl)pyrazolo[4,3-c]pyridin-6-yl]-(1,4-oxazepan-4-yl)methanone]: the IC50 was less than 100 nM on human A2A receptors and less than 1000 nM at human A2B receptors.

As to `O=C(c1cc2c(cn1)c(-c1cnn3ccccc13)nn2CC(F)(F)F)N1CCOCC(O)C1` (stereo not shown) [Compound 119, (6-hydroxy-1,4-oxazepan-4-yl)-[3-pyrazolo[1,5-a]pyridin-3-yl-1-(2,2,2-trifluoroethyl)pyrazolo[4,3-c]pyridin-6-yl]methanone], the IC50 at human A2A receptors is less than 100 nM; on human A2B receptors, less than 1000 nM.

As for `Cc1ccc2occ(-c3nn(CC(F)(F)F)c4cc(C(=O)N5CCCOCC5)ncc34)c2c1` [Compound 125, [3-(5-methylbenzofuran-3-yl)-1-(2,2,2-trifluoroethyl)pyrazolo[4,3-c]pyridin-6-yl]-(1,4-oxazepan-4-yl)methanone], the IC50 at human A2A receptors is less than 100 nM; at human A2B receptors, less than 1000 nM.

With `O=C(c1cc2c(cn1)c(-c1cnc3c(F)cc(F)cn13)nn2CC(F)(F)F)N1CCC(F)(F)CC1` [Compound 146, [3-(6,8-Difluoro-imidazo[1,2-a]pyridin-3-yl)-1-(2,2,2-trifluoro-ethyl)-1H-pyrazolo[4,3-c]pyridin-6-yl]-(4,4-difluoro-piperidin-1-yl)-methanone], the IC50 was less than 100 nM on human A2A receptors and less than 1000 nM at human A2B receptors.

As to `O=C(c1cc2c(cn1)c(-c1coc3ccccc13)nn2CCF)N1CCCOCC1` [Compound 104, [3-Benzofuran-3-yl-1-(2-fluoro-ethyl)-1H-pyrazolo[4,3-c]pyridin-6-yl]-1,4-oxazepan-4-yl-methanone], the results for the IC50 at human A2A receptors and at human A2B receptors were less than 100 nM and less than 1000 nM, respectively.

For `CC1(O)CC2CC1CN2C(=O)c1cc2c(cn1)c(-c1coc3ccccc13)nn2CC(F)(F)F` (stereo not drawn) [Compound 211, [3-Benzofuran-3-yl-1-(2,2,2-trifluoro-ethyl)-1H-pyrazolo[4,3-c]pyridin-6-yl]-(5-endo-hydroxy-5-exo-methyl-2-aza-bicyclo[2.2.1]hept-2-yl)-methanone], the IC50 on human A2A receptors is less than 100 nM; at human A2B receptors, less than 1000 nM.

The values are drawn from patent publication US20210380606A1, “5-AZAINDAZOLE DERIVATIVES AS ADENOSINE RECEPTOR ANTAGONISTS” (Merck Patent GmbH, priority 2018, published 2021).
